Experiments:
Test in all cases: NCI60 cell line screen (SRB)
Format in all cases: cell-based, human
SN12C = conditions: Homo sapiens, Renal Cancer, 48 h
Protocol: (§1) This panel implements the NCI60 cell line screen, including leukemia, non-small cell lung cancer, colon cancer, central nervous system cancer, melanoma, ovarian cancer, renal cancer, prostate cancer and breast cancer. The cell lines tested are specified in Table 3.
(§2) Generally, the human tumor cell lines of the cancer screening panel are grown in RPMI 1640 medium containing 5% fetal bovine serum and 2 mM L-glutamine. For a typical screening experiment, cells are inoculated into 96 well microtiter plates in 100 μL at plating densities ranging from 5,000 to 40,000 cells/well depending on the doubling time of individual cell lines. After cell inoculation, the microtiter plates are incubated at 37° C., 5% CO2, 95% air and 100% relative humidity for 24 h prior to addition of experimental drugs. After 24 h, two plates of each cell line are fixed in situ with TCA, to represent a measurement of the cell population for each cell line at the time of drug addition (Tz). Experimental drugs are solubilized in dimethyl sulfoxide at 400-fold the desired final maximum test concentration and stored frozen prior to use. At the time of drug addition, an aliquot of frozen concentrate is thawed and diluted to twice the desired final maximum test concentration with complete medium containing 50 μg/ml gentamicin. Additional four, 10-fold or ½ log serial dilutions are made to provide a total of five drug concentrations plus control. Aliquots of 100 μl of these different drug dilutions are added to the appropriate microtiter wells already containing 100 μl of medium, resulting in the required final drug concentrations.
(§3) Following drug addition, the plates are incubated for an additional 48 h at 37° C., 5% CO2, 95% air, and 100% relative humidity. For adherent cells, the assay is terminated by the addition of cold TCA. Cells are fixed in situ by the gentle addition of 50 μl of cold 50% (w/v) TCA (final concentration, 10% TCA) and incubated for 60 minutes at 4° C. The supernatant is discarded, and the plates are washed five times with tap water and air dried. Sulforhodamine B (SRB) solution (100 μl) at 0.4% (w/v) in 1% acetic acid is added to each well, and plates are incubated for 10 minutes at room temperature. After staining, unbound dye is removed by washing five times with 1% acetic acid and the plates are air dried. Bound stain is subsequently solubilized with 10 mM trizma base, and the absorbance is read on an automated plate reader at a wavelength of 515 nm. For suspension cells, the methodology is the same except that the assay is terminated by fixing settled cells at the bottom of the wells by gently adding 50 μl of 80% TCA (final concentration, 16% TCA). Using the seven absorbance measurements (time zero, Tz, control growth, (control), and test growth in the presence of drug at the five concentration levels (Ti)), the percentage growth is calculated at each of the drug concentrations levels. Percentage growth inhibition is calculated as:
(§4) [(Ti−Tz)/(C−Tz)]×100 for concentrations for which Ti>/=Tz
(§5) [(Ti−Tz)/Tz]×100 for concentrations for which Ti<Tz.

EKVX = conditions: Homo sapiens, Non-Small Cell Lung Cancer, 48 h
Protocol: as §1, §2, §3, §4, §5

LOX IMVI = conditions: Homo sapiens, Melanoma, 48 h
Protocol: as §1, §2, §3, §4, §5

NCIH332M = conditions: Homo sapiens, NCI-H332M, Non-Small Cell Lung Cancer, 48 h
Protocol: as §1, §2, §3, §4, §5

SW-620 = conditions: Homo sapiens; SW-620, Colon Cancer; 48 h
Protocol: as §1, §2, §3, §4, §5

MOLT-4 = conditions: Homo sapiens; MOLT-4, Leukemia; 48 h
Protocol: as §1, §2, §3, §4, §5

HCT-15 = conditions: Homo sapiens; HCT-15, Colon Cancer; 48 h
Protocol: as §1, §2, §3, §4, §5

HCT-116 = conditions: Homo sapiens; HCT-116, Colon Cancer; 48 h
Protocol: as §1, §2, §3, §4, §5

A498 = conditions: Homo sapiens; A498, Renal Cancer; 48 h
Protocol: as §1, §2, §3, §4, §5

SF-268 = conditions: Homo sapiens; SF-268, CNS Cancer; 48 h
Protocol: as §1, §2, §3, §4, §5

T-47D = conditions: Homo sapiens, T47D, Breast Cancer, 48 h
Protocol: as §1, §2, §3, §4, §5

CCRF-CEM = conditions: Homo sapiens, Leukemia, 48 h
Protocol: as §1, §2, §3, §4, §5

UACC-257 = conditions: Homo sapiens; UACC-257, Melanoma; 48 h
Protocol: as §1, §2, §3, §4, §5

NCI-H460 = conditions: Homo sapiens; NCI-H460, Non-Small Cell Lung Cancer; 48 h
Protocol: as §1, §2, §3, §4, §5

HS 578T = conditions: Homo sapiens, Breast Cancer, 48 h
Protocol: as §1, §2, §3, §4, §5

BT-459 = conditions: Homo sapiens; BT-459, Breast Cancer; 48 h
Protocol: as §1, §2, §3, §4, §5

MDA-MB-435 = conditions: Homo sapiens; MDA-MB-435, Breast Cancer; 48 h
Protocol: as §1, §2, §3, §4, §5

SK-MEL-5 = conditions: Homo sapiens; SK-MEL-5, Melanoma; 48 h
Protocol: as §1, §2, §3, §4, §5

COLO 205 = conditions: Homo sapiens; COLO 205, Colon Cancer; 48 h
Protocol: as §1, §2, §3, §4, §5

HOP-62 = conditions: Homo sapiens; HOP-62, Non-Small Cell Lung Cancer; 48 h
Protocol: as §1, §2, §3, §4, §5

MALME-3M = conditions: Homo sapiens, Melanoma, 48 h
Protocol: as §1, §2, §3, §4, §5

DU-145 = conditions: Homo sapiens; DU-145, Prostate Cancer; 48 h
Protocol: as §1, §2, §3, §4, §5

PC-3 = conditions: Homo sapiens; PC-3, Prostate Cancer; 48 h
Protocol: as §1, §2, §3, §4, §5

OVCAR8 = conditions: Homo sapiens, OVCAR-8; OVCAR8, Ovarian Cancer; 48 h
Protocol: as §1, §2, §3, §4, §5

KM12 = conditions: Homo sapiens; KM12, Colon Cancer; 48 h
Protocol: as §1, §2, §3, §4, §5

HT-29 = conditions: Homo sapiens; HT-29, Colon Cancer; 48 h
Protocol: as §1, §2, §3, §4, §5

COc1ccc(CCNC2=CC3=NCCc4c[nH]c(c43)C2=O)cc1OC.O=C(O)C(F)(F)F [Compound 20]
GI50 (SN12C): 3070 nM
GI50 (EKVX): 3080 nM
GI50 (LOX IMVI): 2340 nM
GI50 (NCIH332M): 2840 nM
GI50 (SW-620): 3090 nM
GI50 (MOLT-4): 4950 nM
GI50 (HCT-15): 2650 nM
GI50 (HCT-116): 2400 nM
GI50 (A498): 7240 nM
GI50 (SF-268): < 10 nM
GI50 (T-47D): 2490 nM
GI50 (CCRF-CEM): 10600 nM
GI50 (UACC-257): 3070 nM
GI50 (NCI-H460): 1420 nM
GI50 (HS 578T): 5040 nM
GI50 (BT-459): 4530 nM
GI50 (MDA-MB-435): 2050 nM
GI50 (SK-MEL-5): 1330 nM
GI50 (COLO 205): 1390 nM
GI50 (HOP-62): 5170 nM
GI50 (MALME-3M): 249 nM
GI50 (DU-145): 2810 nM
GI50 (PC-3): 7620 nM
GI50 (OVCAR8): 1790 nM
GI50 (KM12): 2230 nM
GI50 (HT-29): 2540 nM

Reference: patent US20100144779A1, “Marine Alkalod Makaluvamines and Derivatives Thereof” (THE UAB RESEARCH FOUNDATION, priority 2007, published 2010)
